Results as given in publication PMC10636063, “Progesterone activation of β1-containing BK channels involves two binding sites” (Nature Communications, 2023).
“And” between values parts separate entries of the source, which are not always exact repeats. Identical values can stand only once.

Key:
cbv1+β1W163I = biological target: T1, cbv1+β1W163I (Rattus norvegicus, UniProt P97678, W163I); experiment: Channel activity (NPo) in POPE/POPS bilayers, cbv1+β1W163I; format: biochemical; settings: for normalized NPo, time course Fig 2E: W163I PROG
T1 construct: made in house; host or cells: CHO cells, transient transfection; sucrose-gradient membrane preparation
Source text: BK channel-forming slo1 cDNA (cbv1 isoform; AY330293) was cloned from rat cerebral artery SM cells, and inserted into pcDNA3.1 vector as described. BK β1 cDNA (KCNMB1 product; NP_011452; FJ154955) were isolated from rat cerebral artery SM cells and cloned as described. β4 cDNA (KCNMB4; NP_055320; AY028605) were generously provided by Dr. Ligia Toro. CHO cells were transiently transfected with cbv1 ± β1-, or β4-carrying pcDNA3.1 using X-tremeGENE HP (Sigma-Aldrich). Mutations to β1/4 cDNAs were conducted by Genscript, with sequences being confirmed to be >99% identical to KCNMB1 product; NP_011452 or β4 KCNMB4; NP_055320; respectively. β1/4 and mutant constructs were flag-tagged (DYKDDDDK-tag) by Genscript services for subsequent immunoprecipitation and use in microscale thermophoresis studies.
Proteins for electrophysiological recordings in artificial lipid bilayers remained untagged. Cells were transiently transfected as described above, pelleted and re-suspended on ice in 10 ml of buffer solution of the following composition (mM): 30 KCl, 2 MgCl2, 10 HEPES, 5 EGTA; pH 7.2. A membrane preparation was obtained using a sucrose gradient as described. Aliquots were stored at −80 °C. BK channel-mediated ionic current was recorded in planar lipid bilayers consisting of a POPE:POPS 3:1 (w/w) mixture. Lipid mixtures were dried under N2 and re-suspended in 25 mg/ml of n-decane BK currents following incorporation into horizontal bilayers at 300/30 mM cis/trans gradient as detailed elsewhere. Ion currents were obtained during a 10-min gap-free recording at 0 mV in the presence of 0.01, 10 μM PROG, 10 μM PROG-oxime, or vehicle control (dimethyl sulfoxide; DMSO). Currents were obtained in gap-free mode using a Warner BC-525D amplifier, low pass-filtered at 1 kHz and sampled at 5 kHz with Digidata 1550B/pCLAMP 11 (Molecular Devices). For comparison with previous data from us[16],[17],[45]–[47], studies were conducted at 20–22 °C. PROG stock, oxime stock or vehicle control (DMSO) was added to the bilayer cis chamber to reach final concentrations (0.01–10 µM), with all compounds being dissolved with the same concentration of DMSO (0.1%); n = 5–10 for each group.
(§1) Patch-clamp and bilayer data were analyzed using Clampfit 10.7 software (Molecular Devices). NPo was used as an index of channel steady-state activity where N = number of channels in the patch (defined as a maximal number of opening levels at Po≤1) and Po=single channel open probability. Drug-induced NPo changes were determined by comparing baseline NPo (i.e., NPo with the patch/cell perfused with bath solution) to the NPo from the same patch/cell exposed to the agent under study (DMSO/PROG/oxime) dissolved in bath solution. NPo and mean open time values were automatically calculated using Clampfit 10.7, the latter using a 50% threshold detection event.

[1] = system: de-endothelialized MCA segments of KCNMB1-/- mice permeabilized with β1 constructs; experiment: Cerebral artery diameter in vitro, KCNMB1-/- MCA permeabilized with β1 constructs; parameters: species or system mouse; settings: 10 µM; W87F, Y32V or W163I constructs
Source text: Eight-12 week-old C57BL/6J and KCNMB1^−/− on C57BL/6 background mice of both sexes were deeply anesthetized with isoflurane via inhalation in a tightly sealed jar. […] For de-endothelialized records, the endothelium was removed by passing an air bubble into the vessel lumen for 90 s[30]. This method has been consistently used by our group and validated using endothelium-dependent versus endothelium-independent vasodilators[16],[26]. Arteries were cannulated as previously described by our group[26],[40]. […] PSS was continuously bubbled with an O2/CO2/N2 (21/5/74%) gas mixture and maintained at 35–37 °C. The artery external wall diameter was measured using the automatic edge-detection function of lonWizard software (lonOptix) via Sanyo VCB-3512T camera (Sanyo Electric Co.). Arteries were first incubated at an intravascular pressure of 10 mm Hg for 10 min. Then intravascular pressure was increased to 60 mmHg and held steady throughout the experiment to induce myogenic tone development and maintenance[19],[30],[51]. […] To determine arterial viability, arterial contractility was probed with a high KCl solution at the end of each experiment. […] Like PSS, the high-KCl solution was continuously bubbled with O2/CO2/N2 (21/5/74%) gas mixture and maintained at 35–37 °C. […]

cbv1+β1Y32F = biological target: T2, cbv1+β1Y32F (Rattus norvegicus, UniProt P97678, Y32F); experiment: Channel activity (NPo) in POPE/POPS bilayers, cbv1+β1Y32F; format: biochemical
T2 construct: made in house; host or cells: CHO cells, transient transfection; sucrose-gradient membrane preparation
Source text: BK channel-forming slo1 cDNA (cbv1 isoform; AY330293) was cloned from rat cerebral artery SM cells, and inserted into pcDNA3.1 vector as described. BK β1 cDNA (KCNMB1 product; NP_011452; FJ154955) were isolated from rat cerebral artery SM cells and cloned as described. β4 cDNA (KCNMB4; NP_055320; AY028605) were generously provided by Dr. Ligia Toro. CHO cells were transiently transfected with cbv1 ± β1-, or β4-carrying pcDNA3.1 using X-tremeGENE HP (Sigma-Aldrich). […]
Proteins for electrophysiological recordings in artificial lipid bilayers remained untagged. […] BK channel-mediated ionic current was recorded in planar lipid bilayers consisting of a POPE:POPS 3:1 (w/w) mixture. […]
as §1, with “NPo was used as an index of channel steady-state activity where N = number of channels in the patch (defined as a maximal number of opening levels at Po≤1) and Po=single channel open probability.” left out

[2] = biological target: T3, smooth muscle myocyte BK channels (C57BL/6) (Mus musculus, UniProt Q8CAE3); experiment: Inside-out patch-clamp of MCA smooth muscle myocytes, wt mice; format: cell-based
T3 construct: endogenous in cells; host or cells: freshly isolated mouse middle cerebral artery smooth muscle cells, inside-out patches
Experimental: Ionic currents were recorded from excised, inside-out (I/O) patches. […] In all experiments, free [Ca^2+] in solution was adjusted to the desired value by adding the appropriate amount of Ca^2+ from a 1 mM CaCl2 stock. An agar bridge with Cl^- as main anion was used as ground electrode. Solutions were applied onto the cytosolic side of I/O patches using an automated, pressurized system (Octaflow; […] Ionic currents at single channel resolution were recorded using an EPC8 amplifier (HEKA) at 1 kHz. Data were digitized at 5 kHz using a Digidata […] A/D converter and pCLAMP 8.0 (Molecular Devices); n = 5/group. […] Drug-induced NPo changes were determined by comparing baseline NPo (i.e., NPo with the patch/cell perfused with bath solution) to the NPo from the same patch/cell exposed to the agent under study (DMSO/PROG/oxime) dissolved in bath solution.

T2 sequence (P97678 whole entry Y32F): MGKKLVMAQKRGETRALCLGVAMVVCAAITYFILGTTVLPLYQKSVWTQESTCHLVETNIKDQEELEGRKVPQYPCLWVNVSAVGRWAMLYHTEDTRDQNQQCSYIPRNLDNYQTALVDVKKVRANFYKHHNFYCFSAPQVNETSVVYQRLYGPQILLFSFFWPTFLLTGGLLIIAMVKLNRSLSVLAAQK
T2 sequence (Q62976 1-1148 isoform Q62976-2 partner): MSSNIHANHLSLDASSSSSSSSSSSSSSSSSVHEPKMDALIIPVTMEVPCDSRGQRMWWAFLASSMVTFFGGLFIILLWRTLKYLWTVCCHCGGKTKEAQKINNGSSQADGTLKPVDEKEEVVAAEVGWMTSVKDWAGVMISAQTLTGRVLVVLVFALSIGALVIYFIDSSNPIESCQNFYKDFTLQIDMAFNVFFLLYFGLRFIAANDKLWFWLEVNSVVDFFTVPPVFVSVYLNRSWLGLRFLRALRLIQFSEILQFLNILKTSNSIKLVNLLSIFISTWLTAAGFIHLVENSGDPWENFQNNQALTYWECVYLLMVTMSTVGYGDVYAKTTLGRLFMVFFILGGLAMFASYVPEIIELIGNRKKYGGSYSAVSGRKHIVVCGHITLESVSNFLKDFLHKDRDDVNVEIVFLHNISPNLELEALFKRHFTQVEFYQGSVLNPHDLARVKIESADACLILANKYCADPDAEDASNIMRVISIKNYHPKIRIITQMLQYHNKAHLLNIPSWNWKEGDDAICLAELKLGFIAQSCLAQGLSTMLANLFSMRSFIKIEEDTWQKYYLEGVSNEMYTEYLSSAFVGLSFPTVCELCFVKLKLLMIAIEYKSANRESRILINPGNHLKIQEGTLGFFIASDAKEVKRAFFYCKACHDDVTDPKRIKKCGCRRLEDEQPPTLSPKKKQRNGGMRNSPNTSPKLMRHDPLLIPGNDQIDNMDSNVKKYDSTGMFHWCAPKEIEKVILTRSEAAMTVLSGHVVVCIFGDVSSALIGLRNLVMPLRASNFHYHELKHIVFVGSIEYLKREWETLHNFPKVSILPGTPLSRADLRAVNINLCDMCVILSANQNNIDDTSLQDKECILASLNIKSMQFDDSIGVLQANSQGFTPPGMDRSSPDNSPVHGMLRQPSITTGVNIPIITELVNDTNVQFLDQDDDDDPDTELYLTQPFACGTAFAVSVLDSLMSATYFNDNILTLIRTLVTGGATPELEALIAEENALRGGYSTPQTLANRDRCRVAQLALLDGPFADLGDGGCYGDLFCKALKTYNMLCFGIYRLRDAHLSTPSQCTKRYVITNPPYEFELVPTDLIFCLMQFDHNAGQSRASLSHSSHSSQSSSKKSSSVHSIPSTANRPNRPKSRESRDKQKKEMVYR
T1 sequence (P97678 whole entry W163I): as the sequence (P97678 whole entry Y32F) above, with F32Y, W163I counted along it
T1 sequence (Q62976 1-1148 isoform Q62976-2 partner): as the sequence (Q62976 1-1148 isoform Q62976-2 partner) above
T3 sequence (Q8CAE3 whole entry): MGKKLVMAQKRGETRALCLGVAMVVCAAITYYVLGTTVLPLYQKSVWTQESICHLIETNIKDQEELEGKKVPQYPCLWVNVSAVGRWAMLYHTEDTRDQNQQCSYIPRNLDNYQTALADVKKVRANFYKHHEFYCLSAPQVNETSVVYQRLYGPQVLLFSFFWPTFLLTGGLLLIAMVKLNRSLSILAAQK
T3 sequence (Q08460 whole entry partner): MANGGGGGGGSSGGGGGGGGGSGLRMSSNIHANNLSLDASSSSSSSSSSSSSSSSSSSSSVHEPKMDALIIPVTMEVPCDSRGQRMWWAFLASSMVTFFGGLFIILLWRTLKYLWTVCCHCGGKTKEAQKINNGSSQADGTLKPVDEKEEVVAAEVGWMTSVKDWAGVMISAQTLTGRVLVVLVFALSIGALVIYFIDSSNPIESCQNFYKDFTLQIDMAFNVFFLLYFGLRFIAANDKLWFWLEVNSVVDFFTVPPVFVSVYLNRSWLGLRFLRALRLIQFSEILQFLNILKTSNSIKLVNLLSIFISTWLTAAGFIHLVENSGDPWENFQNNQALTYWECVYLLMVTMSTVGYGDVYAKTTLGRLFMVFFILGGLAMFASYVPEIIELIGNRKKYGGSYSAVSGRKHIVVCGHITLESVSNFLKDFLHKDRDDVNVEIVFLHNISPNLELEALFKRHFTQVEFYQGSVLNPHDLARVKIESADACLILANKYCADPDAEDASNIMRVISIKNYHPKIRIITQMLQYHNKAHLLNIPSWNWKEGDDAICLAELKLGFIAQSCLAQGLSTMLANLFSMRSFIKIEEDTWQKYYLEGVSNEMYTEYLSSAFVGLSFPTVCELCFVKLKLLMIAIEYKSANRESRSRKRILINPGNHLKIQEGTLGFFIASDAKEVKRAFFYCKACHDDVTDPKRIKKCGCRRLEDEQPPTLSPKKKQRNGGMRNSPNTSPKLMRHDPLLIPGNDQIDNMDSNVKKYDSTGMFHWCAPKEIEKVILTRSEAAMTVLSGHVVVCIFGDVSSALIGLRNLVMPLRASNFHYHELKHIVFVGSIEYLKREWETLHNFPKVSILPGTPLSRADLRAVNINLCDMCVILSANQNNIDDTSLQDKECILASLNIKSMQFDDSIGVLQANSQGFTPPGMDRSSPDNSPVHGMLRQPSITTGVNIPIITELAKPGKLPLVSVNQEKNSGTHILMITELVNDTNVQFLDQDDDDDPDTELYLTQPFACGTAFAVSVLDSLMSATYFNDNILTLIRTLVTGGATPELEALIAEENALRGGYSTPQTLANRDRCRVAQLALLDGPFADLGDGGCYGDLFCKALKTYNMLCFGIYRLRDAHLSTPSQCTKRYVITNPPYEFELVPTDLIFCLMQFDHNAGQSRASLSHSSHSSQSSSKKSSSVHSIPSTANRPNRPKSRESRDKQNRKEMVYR

CC(=O)[C@H]1CC[C@H]2[C@@H]3CCC4=CC(=O)CC[C@]4(C)[C@H]3CC[C@]12C [PROG, Progesterone]
action on channel activity (NPo) (cbv1+β1W163I; 10 µM, vs DMSO): effectively abolished PROG action
normalized NPo, time course Fig 2E (cbv1+β1W163I; time 1 min (normalisation reference)): 1
normalized NPo, time course Fig 2E (cbv1+β1W163I; time 2 min): 0.8408 and 0.8822 and 1.039 and 0.6048 and 0.9835
normalized NPo, time course Fig 2E (cbv1+β1W163I; time 6 min): 0.9156 and 1.236 and 1.01 and 0.7339 and 0.9865
normalized NPo, time course Fig 2E (cbv1+β1W163I; time 7 min): 1.033 and 1.222 and 0.6583 and 1.166
normalized NPo, time course Fig 2E (cbv1+β1W163I; time 8 min): 0.9156 and 0.8317 and 0.9282 and 1.117
normalized NPo, time course Fig 2E (cbv1+β1W163I; time 9 min): 1.0966 and 0.7071 and 0.5738 and 1.067
normalized NPo, time course Fig 2E (cbv1+β1W163I; time 10 min): 1.291 and 0.8215 and 0.6728 and 1.157
vasoactive response of MCA segments [1]: failed to dilate MCA segments
action on channel activity (NPo) (cbv1+β1Y32F; 10 µM, vs DMSO): significantly activated
channel activity (NPo) with prog, normalized (cbv1+β1Y32F; SFig3A, cbv1+y32f, individual bilayers): 3.7931 and 1.379 and 2.626 and 0.9886 and 1.589
increase of BK channel activity ([2]; 10 µM, I/O patches, 30 μM free Ca2+): ~ 3 fold
normalized NPo, time course Fig 5C ([2]; wt mouse, PROG, time 1 (normalisation reference), columns = cell number): 1
